According to EP4803525A1 (Hefei Institute of Pharmaceutical Industry Co., Ltd., priority 2023, dated 2025):

What was measured:
[1] = test system: mouse eosinophilic asthma model; experiment: Eosinophilic asthma induced by house dust mite extract in mice; details: eosinophilic asthmatic mice, n=10; for IL-4 / IgE: bronchoalveolar lavage fluid, Mean ± SD; for Eosinophils (%): lung lavage fluid; for Eosinophils (%) / Number of sneezes (20 minutes): mean ± SD; for Number of sneezes (20 minutes): within 20 minutes after the last administration
Protocol: The number of eosinophils in the lung lavage fluid of mice and the number of sneezes in mice within 20 minutes after the last administration were counted.

[2] = test system: rat model of chronic obstructive pulmonary disease (COPD); experiment: Chronic obstructive pulmonary disease in rats (fumigation and intratracheal LPS); details: n=8; for 14-day FEV 1/FVC (%): day 14 of treatment; for 14-day FEV 1/FVC (%) / 28-day FEV 1/FVC (%): Mean ± SD; for 28-day FEV 1/FVC (%): last administration (28 days); for Pathological score: lung tissue, HE staining; for Pathological score / IL-1β / TNF-α: mean ± SD; for IL-1β / TNF-α: serum, ELISA
Protocol: Subsequently, the SD rats were randomly divided into 5 groups according to their body weight, with 8 rats in each group and half male and half female.
Except for the blank control group, SD rats were used to establish a rat model of chronic obstructive pulmonary disease (COPD) by fumigation and intratracheal instillation of LPS. On days 1, 14, 28 and 42 of modeling, the rats were anesthetized with chloral hydrate and then 125 µL of LPS (2 mg/mL) solution was instilled into the trachea. For the rest of the time, the animals were placed in a self-made fumigation box and each group of rats was continuously fumigated with 10 lit cigarettes for 1.5 hours (once in the morning and once in the afternoon) for 50 consecutive days. After the model was established, the rats in each group were given the drug twice a day for 28 consecutive days.
The rat lung function test instrument was used to measure FVC and FEV1 on day 14 of treatment and at the last administration, and the FEV1/FVC ratio was calculated.
Blood samples were collected after the last administration of the drug to measure inflammatory markers. Levels of IL-1β and TNF-α in serum were measured according to the ELISA instructions.
After the last treatment, all three lobes of the right lung of the rats were removed, fixed and dehydrated in 10% formaldehyde, embedded in paraffin, sectioned, and stained with hematoxylin and eosin (HE). The morphological changes of the lung tissue of the rats in each group were observed.

hERG potassium channel = target: T1, hERG potassium channel (Homo sapiens, UniProt Q12809); experiment: hERG whole-cell patch-clamp test in HEK-293 cells; assay type: cell-based; details: HEK-293 cells stably expressing hERG, whole-cell patch clamp, 0.03-30 µM, read-out: h ERG IC50
T1 construct: host or cells: HEK-293
Protocol: HEK-293 cell line stably expressing hERG potassium channels (purchased from Creacell, catalog number: A-0320) was used. HEK293 cell lines were cultured in DMEM medium containing 10% fetal bovine serum and 0.8 mg/mL G418 at a temperature of 37°C and a carbon dioxide concentration of 5%. For patch-clamp assays, cells were separated using TrypLE™ Express before the assay. 4 × 10^3 cells were seeded onto coverslips and cultured in 24-well plates (final volume: 500 µL). The assays were performed 18 hours later.
Whole-cell patch-clamp test: after whole-cell sealing is achieved, the cell membrane voltage is clamped to -80mV. […] Data was collected every 10 seconds to observe the effect of the drug on hERG tail current. A -50 mV stimulus of 0.5 s was used as the leakage current detection. Experimental data were collected by the EPC-10 amplifier and stored in the software. Once the hERG current recorded in whole cells stabilized, drug administration began. Each drug concentration was administered for 5 minutes (or the current stabilized) before the next concentration was measured.

[3] = test system: bleomycin-induced pulmonary fibrosis in rats; experiment: Bleomycin-induced pulmonary fibrosis in rats; details: mean ± SD, n=10; for Percentage of lung collagen fibers (%): Masson's staining; for IL-6 / TGF-β: bronchoalveolar lavage fluid, ELISA
Protocol: 50 SD rats were randomly divided into 5 groups according to their body weight, with 10 rats in each group and half male and half female.
After anesthetizing rats with chloral hydrate, bleomycin solution was injected into the trachea through the vocal cords at a dose of 5 mg/kg and a volume of 1 ml/kg; rats in the blank control group were injected with an equal volume of physiological saline into the trachea. […] Blood and lungs were collected from each group of animals on day 22. After euthanizing the rats, the trachea was exposed, and an intravenous cannula was inserted into the rat's bronchus. The trachea was lavaged twice with PBS (5 ml), and the lavage fluid was collected. Then, centrifugation was performed at 1500 r/min for 10 min. The supernatant was collected.

PDE4A1A = target: T2, PDE4A1A (Homo sapiens, UniProt P27815); experiment: Selectivity for PDE4 enzyme isotypes, same detection method as PDE4B; assay type: biochemical
T2 construct: purchased BPS bioscience
Protocol: (§1) 2.1 Compound preparation and treatment: all compounds were prepared into 50 mM stock solutions using dimethyl sulfoxide.
(§2) 2.2 Preparation of working stock solution: a) the reference rolipram was serially diluted 3 times with dimethyl sulfoxide starting from 2 mmol, to a total of 10 concentrations. b) 2 mmol of the compound of the present invention was serially diluted three times with dimethyl sulfoxide (DMSO) to a total of 10 concentrations. c) A 200X positive control (2 mM rolipram) and a 200X vector control (100% dimethyl sulfoxide) were prepared. d) The compound plate was centrifuged at 1000 rpm for 1 minute.
(§3) • a) An Echo 550 was used to transfer 20 nL of compound dilution to each well of the detection plate. • b) The test plate was sealed and centrifuged at 1000 rpm for 1 minute. • c) 2X PDE4B2 was prepared in frozen PDE detection buffer. • d) 2 µL of 2X PDE4B2 was added to each well of the detection plate (prepared in step b). • e) The test plate was sealed and incubated for 10 minutes under RT conditions. • f) 2X Cyclic-3',5'-AMP was prepared in PDE detection buffer. • g) 2 µl of 2X Cyclic-3',5'-AMP (prepared in step f) was added to each well of the detection plate (prepared in step e) to initiate the reaction. Incubation was performed at room temperature for 60 minutes. • h) 4 µL of AMP-Glo reagent I was added. • i) 8 µL of AMP detection solution was added. Incubation was performed at room temperature for 60 minutes. • k) The RLU signal was read on the Envision 2105 reader.
(§4) Same detection method as PDE4B

PDE4C1 = target: T3, PDE4C1 (Homo sapiens, UniProt Q08493); experiment: as above; assay type: biochemical
T3 construct: purchased BPS bioscience
Protocol: as §1, §2, §3, §4

PDE4B2A = target: T4, PDE4B2A (Homo sapiens, UniProt Q07343); experiment: as above; assay type: biochemical
T4 construct: purchased BPS bioscience
Protocol: as §1, §2, §3, §4

PDE4D2 = target: T5, PDE4D2 (Homo sapiens, UniProt Q08499); experiment: as above; assay type: biochemical
T5 construct: purchased BPS bioscience
Protocol: as §1, §2, §3, §4

PDE4D3 = target: T6, PDE4D3 (Homo sapiens, UniProt Q08499); experiment: as above; assay type: biochemical
T6 construct: purchased BPS bioscience
Protocol: as §1, §2, §3, §4

[4] = 5 mg/kg twice daily for 14 days
[5] = 10 mg/kg twice daily for 14 days
[6] = 20 mg/kg twice daily for 14 days
[7] = 5 mg/kg twice a day for 28 days
[8] = 10 mg/kg twice a day for 28 days
[9] = 20 mg/kg twice a day for 28 days
[10] = 5 mg/kg intragastric twice daily for 14 days
[11] = 10 mg/kg intragastric twice daily for 14 days
[12] = 20 mg/kg intragastric twice daily for 14 days

T6 sequence (Q08499 1-673 isoform Q08499-2): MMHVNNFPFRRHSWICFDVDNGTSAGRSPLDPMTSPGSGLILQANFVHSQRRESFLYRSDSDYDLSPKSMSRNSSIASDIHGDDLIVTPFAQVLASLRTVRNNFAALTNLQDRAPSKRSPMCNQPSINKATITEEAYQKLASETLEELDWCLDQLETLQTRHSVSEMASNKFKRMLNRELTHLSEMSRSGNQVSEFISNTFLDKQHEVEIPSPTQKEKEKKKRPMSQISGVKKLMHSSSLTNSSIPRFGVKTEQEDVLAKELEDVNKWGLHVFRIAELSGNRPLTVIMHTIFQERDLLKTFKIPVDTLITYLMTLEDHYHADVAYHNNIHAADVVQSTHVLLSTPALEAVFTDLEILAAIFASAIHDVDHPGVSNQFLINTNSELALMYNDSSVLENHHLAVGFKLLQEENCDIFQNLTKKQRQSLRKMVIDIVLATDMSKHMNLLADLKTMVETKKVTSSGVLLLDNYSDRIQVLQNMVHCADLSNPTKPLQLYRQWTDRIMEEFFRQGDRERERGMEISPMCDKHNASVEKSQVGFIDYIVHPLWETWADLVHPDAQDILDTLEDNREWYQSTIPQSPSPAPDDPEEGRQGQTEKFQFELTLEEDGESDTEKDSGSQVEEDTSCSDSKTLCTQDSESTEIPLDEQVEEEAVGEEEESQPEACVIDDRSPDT
T4 sequence (Q07343 1-564 isoform Q07343-2): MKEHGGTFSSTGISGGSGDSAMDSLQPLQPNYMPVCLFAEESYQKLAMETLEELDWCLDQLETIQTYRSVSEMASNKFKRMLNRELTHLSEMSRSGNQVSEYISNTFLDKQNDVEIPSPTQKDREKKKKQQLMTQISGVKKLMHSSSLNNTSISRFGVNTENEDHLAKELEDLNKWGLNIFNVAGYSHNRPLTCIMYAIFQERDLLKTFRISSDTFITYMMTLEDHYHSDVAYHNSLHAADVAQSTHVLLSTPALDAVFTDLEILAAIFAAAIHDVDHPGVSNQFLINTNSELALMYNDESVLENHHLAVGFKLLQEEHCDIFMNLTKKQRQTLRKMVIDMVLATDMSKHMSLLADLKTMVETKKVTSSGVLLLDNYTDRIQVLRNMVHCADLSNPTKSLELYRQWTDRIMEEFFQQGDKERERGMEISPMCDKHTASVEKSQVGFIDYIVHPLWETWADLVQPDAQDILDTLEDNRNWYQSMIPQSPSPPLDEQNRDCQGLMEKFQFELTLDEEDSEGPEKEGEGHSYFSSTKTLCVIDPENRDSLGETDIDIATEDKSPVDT
T5 sequence (Q08499 303-809): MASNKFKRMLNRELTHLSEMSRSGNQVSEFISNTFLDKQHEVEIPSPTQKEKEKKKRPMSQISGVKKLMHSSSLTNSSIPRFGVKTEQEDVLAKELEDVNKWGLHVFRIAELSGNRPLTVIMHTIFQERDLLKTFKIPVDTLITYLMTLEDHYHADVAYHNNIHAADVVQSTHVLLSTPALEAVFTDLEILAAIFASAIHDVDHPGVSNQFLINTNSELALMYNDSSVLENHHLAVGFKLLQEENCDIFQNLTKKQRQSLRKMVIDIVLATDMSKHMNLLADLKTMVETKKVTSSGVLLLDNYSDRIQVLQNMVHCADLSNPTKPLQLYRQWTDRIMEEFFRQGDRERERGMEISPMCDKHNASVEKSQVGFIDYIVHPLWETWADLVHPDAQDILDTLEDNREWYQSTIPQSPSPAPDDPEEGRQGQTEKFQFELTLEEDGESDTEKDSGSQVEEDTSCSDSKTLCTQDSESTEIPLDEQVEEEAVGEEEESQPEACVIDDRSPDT
T3 sequence (Q08493 whole entry): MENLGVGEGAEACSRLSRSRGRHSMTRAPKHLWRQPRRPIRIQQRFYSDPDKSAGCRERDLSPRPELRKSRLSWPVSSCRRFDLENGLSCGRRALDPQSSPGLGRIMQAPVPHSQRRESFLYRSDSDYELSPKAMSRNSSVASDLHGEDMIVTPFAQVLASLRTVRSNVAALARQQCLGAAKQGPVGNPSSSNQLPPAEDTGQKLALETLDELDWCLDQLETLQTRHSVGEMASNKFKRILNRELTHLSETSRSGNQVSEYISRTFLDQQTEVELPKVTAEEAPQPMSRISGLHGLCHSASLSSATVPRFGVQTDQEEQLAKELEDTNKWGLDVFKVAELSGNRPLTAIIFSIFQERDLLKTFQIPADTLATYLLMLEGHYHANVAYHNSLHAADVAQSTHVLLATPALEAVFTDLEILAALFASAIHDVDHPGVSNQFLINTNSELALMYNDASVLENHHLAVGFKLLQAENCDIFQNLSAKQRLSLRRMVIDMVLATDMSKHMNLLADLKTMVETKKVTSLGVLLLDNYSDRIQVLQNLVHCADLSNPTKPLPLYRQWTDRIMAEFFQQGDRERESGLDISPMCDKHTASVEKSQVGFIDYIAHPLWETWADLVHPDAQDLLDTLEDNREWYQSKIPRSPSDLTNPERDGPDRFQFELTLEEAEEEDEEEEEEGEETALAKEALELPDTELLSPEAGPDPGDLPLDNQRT
T1 sequence (Q12809 whole entry): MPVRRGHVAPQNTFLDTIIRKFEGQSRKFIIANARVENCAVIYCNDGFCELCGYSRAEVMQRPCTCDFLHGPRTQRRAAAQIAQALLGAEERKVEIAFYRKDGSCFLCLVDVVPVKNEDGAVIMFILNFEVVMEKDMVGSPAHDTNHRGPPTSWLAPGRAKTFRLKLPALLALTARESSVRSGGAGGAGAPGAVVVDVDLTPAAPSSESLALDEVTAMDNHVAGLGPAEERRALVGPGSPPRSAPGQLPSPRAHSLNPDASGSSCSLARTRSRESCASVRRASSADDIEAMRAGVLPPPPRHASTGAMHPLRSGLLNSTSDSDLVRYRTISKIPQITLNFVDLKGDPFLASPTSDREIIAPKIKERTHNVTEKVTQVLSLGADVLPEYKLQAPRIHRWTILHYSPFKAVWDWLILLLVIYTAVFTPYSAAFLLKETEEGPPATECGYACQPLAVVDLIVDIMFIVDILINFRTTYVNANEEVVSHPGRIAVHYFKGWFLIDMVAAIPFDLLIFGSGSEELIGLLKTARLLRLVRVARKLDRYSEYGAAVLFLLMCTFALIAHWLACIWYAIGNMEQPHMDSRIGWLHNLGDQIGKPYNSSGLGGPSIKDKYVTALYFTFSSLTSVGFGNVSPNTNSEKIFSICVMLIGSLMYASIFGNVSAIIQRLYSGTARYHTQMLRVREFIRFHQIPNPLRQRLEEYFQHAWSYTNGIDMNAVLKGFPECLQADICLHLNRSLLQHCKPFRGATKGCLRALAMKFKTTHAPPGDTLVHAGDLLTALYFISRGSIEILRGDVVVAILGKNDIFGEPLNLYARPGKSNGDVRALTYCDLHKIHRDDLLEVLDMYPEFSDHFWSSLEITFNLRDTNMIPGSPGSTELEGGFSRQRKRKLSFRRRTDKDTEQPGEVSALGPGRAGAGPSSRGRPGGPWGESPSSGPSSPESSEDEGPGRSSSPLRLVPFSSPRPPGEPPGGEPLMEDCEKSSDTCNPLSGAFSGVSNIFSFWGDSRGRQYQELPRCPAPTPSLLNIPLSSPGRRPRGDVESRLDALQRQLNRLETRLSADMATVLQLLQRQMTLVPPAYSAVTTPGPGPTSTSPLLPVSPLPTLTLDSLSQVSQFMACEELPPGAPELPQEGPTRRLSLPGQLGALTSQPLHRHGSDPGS
T2 sequence (P27815 1-647 isoform P27815-4): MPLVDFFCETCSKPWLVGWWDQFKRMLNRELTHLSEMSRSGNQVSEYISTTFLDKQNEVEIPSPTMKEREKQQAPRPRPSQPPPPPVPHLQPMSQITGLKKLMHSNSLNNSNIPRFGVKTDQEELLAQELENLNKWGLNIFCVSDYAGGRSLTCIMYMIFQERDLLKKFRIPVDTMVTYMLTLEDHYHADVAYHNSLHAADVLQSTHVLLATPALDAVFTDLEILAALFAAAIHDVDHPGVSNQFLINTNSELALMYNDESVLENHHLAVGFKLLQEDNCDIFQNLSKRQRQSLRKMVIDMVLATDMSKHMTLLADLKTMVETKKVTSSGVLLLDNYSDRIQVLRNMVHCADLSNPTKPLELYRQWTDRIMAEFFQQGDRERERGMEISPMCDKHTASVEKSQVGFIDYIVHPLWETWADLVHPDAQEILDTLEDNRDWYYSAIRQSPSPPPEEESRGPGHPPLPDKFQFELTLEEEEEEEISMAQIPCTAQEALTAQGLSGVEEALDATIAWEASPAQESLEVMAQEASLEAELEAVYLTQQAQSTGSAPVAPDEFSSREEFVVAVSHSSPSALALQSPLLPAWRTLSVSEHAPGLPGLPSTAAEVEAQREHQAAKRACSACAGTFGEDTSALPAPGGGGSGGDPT

Structure (SMILES): O=C(O)Cc1ccc(Nc2nc(N3CCC(c4ncc(Cl)cn4)CC3)nc3c2S(=O)(=O)CCC3)cc1F [Example 11, 2-(4-((2-(4-(5-chloropyrimidin-2-yl)piperidin-1-yl)-5,5-dioxo-7,8-dihydro-6H -thiapyrano[3,2-d]pyrimidin-4-yl)amino)-2-fluorophenyl)acetic acid]
- IL-4 [1, 4]: 70.92 ± 10.87 pg/mL
- IgE [1, 4]: 266.55 ± 52.03 pg/mL
- IL-4 [1, 5]: 59.38 ± 9.90 pg/mL
- IgE [1, 5]: 219.05 ± 38.74 pg/mL
- IL-4 [1, 6]: 51.13 ± 16.07 pg/mL
- IgE [1, 6]: 189.36 ± 56.69 pg/mL
- Eosinophils (%) [1, 4]: 21.97±2.58 %
- Eosinophils (%) [1, 5]: 17.93±3.30 %
- Eosinophils (%) [1, 6]: 16.04±2.97 %
- Number of sneezes (20 minutes) [1, 4]: 17.9±3.4
- Number of sneezes (20 minutes) [1, 5]: 16.3±3.7
- Number of sneezes (20 minutes) [1, 6]: 13.8±1.9
- 14-day FEV 1/FVC (%) ([2]; 5 mg/kg twice a day): 66.65±5.48 %
- 28-day FEV 1/FVC (%) ([2]; 5 mg/kg twice a day): 69.99±2.65 %
- 14-day FEV 1/FVC (%) ([2]; 10 mg/kg twice a day): 72.14±6.56 %
- 28-day FEV 1/FVC (%) ([2]; 10 mg/kg twice a day): 75.30±1.84 %
- 14-day FEV 1/FVC (%) ([2]; 20 mg/kg twice a day): 76.78±5.41 %
- 28-day FEV 1/FVC (%) ([2]; 20 mg/kg twice a day): 77.10±1.81 %
- Pathological score [2, 7]: 3.83 ± 0.75
- Pathological score [2, 8]: 2.00±0.63
- Pathological score [2, 9]: 1.83±0.41
- IL-1β [2, 7]: 71.13 ± 16.14 pg/mL
- TNF-α [2, 7]: 118.36 ± 27.30 pg/mL
- IL-1β [2, 8]: 51.92 ± 16.06 pg/mL
- TNF-α [2, 8]: 90.15 ± 15.79 pg/mL
- IL-1β [2, 9]: 50.75 ± 15.07 pg/mL
- TNF-α [2, 9]: 73.23 ± 11.78 pg/mL
- IC50 (hERG potassium channel): > 30000 nM
- Percentage of lung collagen fibers (%) [3, 10]: 16.1±4.6 %
- Percentage of lung collagen fibers (%) [3, 11]: 9.7±2.2 %
- Percentage of lung collagen fibers (%) [3, 12]: 8.5±2.5 %
- IL-6 [3, 10]: 34.8 ± 3.7 pg/mL
- TGF-β [3, 10]: 79.0 ± 6.4 pg/mL
- IL-6 [3, 11]: 32.5 ± 6.1 pg/mL
- TGF-β [3, 11]: 69.1 ± 6.3 pg/mL
- IL-6 [3, 12]: 28.3 ± 3.9 pg/mL
- TGF-β [3, 12]: 56.3 ± 5.2 pg/mL

Structure (SMILES): [O-][S+]1CCc2nc(N3CCC(c4ncc(Cl)cn4)CC3)nc(NC3(CO)CCC3)c21 (stereo not drawn) [WO2013026797 (Compound II)]
- IC50 at 5 min (hERG potassium channel; human, HEK-293 cells stably expressing hERG potassium channels): > 3280 nM
- IC50 (PDE4A1A): 112 nM
- Selectivity over PDE4B (PDE4A1A; PDE4A1A vs PDE4B2A): 4.5
- IC50 (PDE4C1): 2190 nM
- Selectivity over PDE4B (PDE4C1; PDE4C1 vs PDE4B2A): 89
- IC50 (PDE4B2A): 24.5 nM
- Selectivity over PDE4B (PDE4B2A; PDE4B2A vs PDE4B2A): 1
- IC50 (PDE4D2): 37.1 nM
- Selectivity over PDE4B (PDE4D2; PDE4D2 vs PDE4B2A): 1.5
- IC50 (PDE4D3): 65.8 nM
- Selectivity over PDE4B (PDE4D3; PDE4D3 vs PDE4B2A): 2.7
